Results taken from ChEMBL document CHEMBL4007488, “Amphiphilic Indole Derivatives as Antimycobacterial Agents: Structure-Activity Relationships and Membrane Targeting Properties” (J Med Chem, 2017).
In brackets after ≈: the same amount, converted by molar mass. Activity calls are given as the source filed them. The rule behind the calls is not given here.

Tests used:
[1] = test system: Mycobacterium tuberculosis variant bovis; experiment: Antimycobacterial activity against Mycobacterium bovis BCG ATCC 35734 assessed as membrane depolarization at 200 uM by DiOC2-based fluorescence assay relative to control; format: functional, Mycobacterium tuberculosis variant bovis BCG
[2] = test system: Mycobacterium tuberculosis variant bovis; experiment: Antimycobacterial activity against Mycobacterium bovis BCG ATCC 35734 assessed as growth inhibition at 10 uM after 5 days relative to control; format: functional; conditions: ATCC 35734, 120 h, read-out: GI
[3] = test system: Mycobacterium tuberculosis variant bovis; experiment: Antimycobacterial activity against Mycobacterium bovis BCG ATCC 35734 using middlebrook 7H9 broth media after 5 days by broth dilution method; format: functional; conditions: ATCC 35734, 120 h
[4] = test system: Mycobacterium tuberculosis variant bovis; experiment: Induction of cell envelope stress in iniBAC expressing Mycobacterium bovis BCG ATCC 35734 co-expressing RFP assessed as increase in iniBAC promoter gene activity at compound MIC50 after 24 hrs by fluorescence assay relative to control; format: functional, Mycobacterium tuberculosis variant bovis BCG
[5] = test system: Mycobacterium tuberculosis variant bovis; experiment: Bactericidal activity against Mycobacterium bovis BCG ATCC 35734 assessed as reduction in colony forming units at 1.6 uM measured daily over 5 days of compound treatment by time kill assay; format: functional
[6] = test system: Mycobacterium tuberculosis variant bovis; experiment: Antimycobacterial activity against Mycobacterium bovis BCG ATCC 35734 using middlebrook 7H9 broth media supplemented with 10 % fetal bovine serum after 5 days by broth dilution method; format: functional; conditions: ATCC 35734, 120 h
[7] = test system: Mycobacterium tuberculosis variant bovis; experiment: Antimycobacterial activity against Mycobacterium bovis BCG ATCC 35734 in presence of menaquinone; format: functional
[8] = test system: Mycobacterium tuberculosis variant bovis; experiment: Antimycobacterial activity against Mycobacterium bovis BCG ATCC 35734 assessed as increase in permeabilized cells at 12 uM by propidium iodide-staining based FACS analysis; format: functional, cell-based; conditions: TDE = time-dependent effect
[9] = test system: Mycobacterium tuberculosis variant bovis; experiment: Antimycobacterial activity against Mycobacterium bovis BCG ATCC 35734 after 5 days by broth dilution method; format: functional; conditions: ATCC 35734, 120 h
[10] = test system: Mycobacterium tuberculosis variant bovis; experiment: Bactericidal activity against Mycobacterium bovis BCG ATCC 35734 assessed as 1000 fold kill under low-oxygen tension conditions by time kill assay; format: functional, Mycobacterium tuberculosis variant bovis BCG
[11] = test system: Mycobacterium tuberculosis variant bovis; experiment: Antimycobacterial activity against Mycobacterium bovis BCG ATCC 35734 up to 4 times MIC90 after 8 weeks; format: functional
[12] = test system: Mycobacterium tuberculosis variant bovis; experiment: Antimycobacterial activity against Mycobacterium bovis BCG ATCC 35734 assessed as increase in permeabilized cells at 1.6 uM measured daily over 5 days of compound treatment by propidium iodide-staining based FACS analysis; format: functional, cell-based
[13] = test system: Mycobacterium tuberculosis variant bovis; experiment: Antimycobacterial activity against Mycobacterium bovis BCG ATCC 35734 assessed as membrane depolarization at 12 uM by DiOC2-based fluorescence assay; format: functional; conditions: TDE = time-dependent effect
[14] = test system: Mycobacterium tuberculosis variant bovis; experiment: Bactericidal activity against Mycobacterium bovis BCG ATCC 35734 assessed as reduction in colony forming units measured on day 4 by time kill assay; format: functional; conditions: ATCC 35734, 96 h, read-out: MBC99.9
[15] = test system: Mycobacterium tuberculosis variant bovis; experiment: Antimycobacterial activity against Mycobacterium bovis BCG ATCC 35734 assessed as membrane depolarization at 1.6 uM measured daily over 5 days of compound treatment by DiOC2-based fluorescence assay; format: functional
[16] = test system: Mycobacterium tuberculosis variant bovis; experiment: Induction of cell envelope stress in clgR-pspA expressing Mycobacterium bovis BCG ATCC 35734 co-expressing RFP assessed as increase in clgR promoter gene activity at compound MIC50 after 24 hrs by fluorescence assay relative to control; format: functional, Mycobacterium tuberculosis variant bovis BCG

| SMILES | inhibition of growth at 10 µM [2] [%] | MIC50 [9] [µM] | MIC90 [9] [µM] | other results |
| --- | --- | --- | --- | --- |
| N#CC(C#N)=NNc1cccc(Cl)c1 [CARBONYL CYANIDE M-CHLOROPHENYLHYDRAZONE] | – | – | – | Activity [1]: 90% |
| CCCCCCCCn1cc(CN2CCCCCC2)c2c(F)cccc21 | 99 | 2 (≈ 0.717 µg/mL) | 6 (≈ 2.15 µg/mL) | MIC50 [3]: 5 µM (≈ 1.79 µg/mL); fold change (FC) [4]: 10; Activity [5]: Active; MIC50 [6]: 4.5 µM (≈ 1.61 µg/mL); Activity [7]: Active; Activity [8]: Tde; WCC99.9 [10]: 12 to 24 µM; Activity [11]: Active; Activity [12]: Active; Activity [13]: Tde; MBC [14]: 12 µM (≈ 4.3 µg/mL); Activity [15]: Active; fold change (FC) [16]: 5 |
| CCCCCCCCn1cc(CN2CCC3(CC2)OCCO3)c2ccc(OC)cc21 | 99 | 2 (≈ 0.829 µg/mL) | 4 (≈ 1.66 µg/mL) | MIC50 [3]: 2.1 µM (≈ 0.871 µg/mL); MIC50 [6]: 2.5 µM (≈ 1.04 µg/mL) |
| NNC(=O)c1ccncc1 | – | – | – | Activity [11]: inactive |
| CC(C)=CCC/C(C)=C/Cn1cc(CN2CCCCC2)c2cc(Br)ccc21 | 99 | 8 (≈ 3.44 µg/mL) | 10 (≈ 4.29 µg/mL) | – |
| CCCCCCCCn1cc(CN2CCCCC2)c2cccc(F)c21 | 99 | 8 (≈ 2.76 µg/mL) | 11 (≈ 3.79 µg/mL) | – |
| CCCN(CC)Cc1cn(C/C=C(\C)CCC=C(C)C)c2ccc(F)cc12 | 99 | 13 (≈ 4.82 µg/mL) | 25 (≈ 9.26 µg/mL) | – |
| CCCCCCCCn1cc(CN2CCCCC2)c2cc(OC)ccc21 | 99 | 5 (≈ 1.78 µg/mL) | 7.5 to 8 (≈ 2.67 to 2.85 µg/mL) | – |
| CCN(CC)Cc1cn(C/C=C(\C)CCC=C(C)C)c2ccc(F)cc12 | 99 | 13 (≈ 4.63 µg/mL) | 24 (≈ 8.56 µg/mL) | – |
| Fc1ccc2c(c1)c(CN1CCCCC1)cn2CCCc1ccccc1 | 99 | 10 (≈ 3.5 µg/mL) | 20 (≈ 7.01 µg/mL) | – |
| CCCCCCCCn1cc(CN2CCCCCC2)c2cccc(F)c21 | 99 | 5 (≈ 1.79 µg/mL) | 8 (≈ 2.87 µg/mL) | – |
| CCCCCCCCn1cc(CN(CCC)CCC)c2cc(F)ccc21 | 99 | 11 (≈ 3.97 µg/mL) | 35 (≈ 12.6 µg/mL) | – |
| CC(C)=CCC/C(C)=C/Cn1cc(C(=O)N2CCCCC2)c2cc(F)ccc21 | 99 | > 50 | > 50 | – |
| CCCCCCCCn1cc(CN2CCC3(CC2)OCCO3)c2cc(F)ccc21 | 99 | 3 (≈ 1.21 µg/mL) | 5 (≈ 2.01 µg/mL) | – |
| CC(C)=CCC/C(C)=C/Cn1cc(CNC23CC4CC(CC(C4)C2)C3)c2cc(F)ccc21 | 99 | 17.5 (≈ 7.61 µg/mL) | 25.5 (≈ 11.1 µg/mL) | – |
| CCCCCCCCn1cc(CN2CCCCC2)c2ccc(F)cc21 | 99 | 6 (≈ 2.07 µg/mL) | 12 (≈ 4.13 µg/mL) | – |
| CCCCCCCCn1cc(CN2CCC3(CC2)OCCO3)c2c(OC)cccc21 | 99 | 6 (≈ 2.49 µg/mL) | 9 (≈ 3.73 µg/mL) | – |
| CCCCCCCCn1cc(CN2CCCCCC2)c2cc(F)ccc21 | 99 | 4 (≈ 1.43 µg/mL) | 6 (≈ 2.15 µg/mL) | – |
| Fc1ccc2c(c1)c(CN1CCCCC1)cn2CCCOc1ccccc1 | 99 | 19 (≈ 6.96 µg/mL) | 50 (≈ 18.3 µg/mL) | – |
| CCCCCCCCn1cc(CN2CCCCCC2)c2c(OC)cccc21 | 99 | 6 (≈ 2.22 µg/mL) | 11 (≈ 4.08 µg/mL) | – |
| Fc1ccc2c(c1)c(CN1CCCCC1)cn2CCC1CCCCC1 | 99 | 17 (≈ 5.82 µg/mL) | 27 (≈ 9.25 µg/mL) | – |
| CCCCCCCCn1cc(CNCCC)c2cc(F)ccc21 | 99 | 10 (≈ 3.18 µg/mL) | 20 (≈ 6.37 µg/mL) | – |
| CCCN(C)Cc1cn(C/C=C(\C)CCC=C(C)C)c2ccc(F)cc12 | 99 | 13 (≈ 4.63 µg/mL) | 28.5 (≈ 10.2 µg/mL) | – |
| CC(C)=CCC/C(C)=C/Cn1cc(CNC2CCCCCC2)c2cc(F)ccc21 | 99 | 45 (≈ 17.8 µg/mL) | 50 (≈ 19.8 µg/mL) | – |
| CC(C)=CCC/C(C)=C/Cn1cc(CN2CCCCC2)c2cc(F)ccc21 | 99 | 5 (≈ 1.84 µg/mL) | 11 (≈ 4.05 µg/mL) | – |
| CCCCCCCCn1cc(CNC(C)C)c2cc(F)ccc21 | 99 | 12 (≈ 3.82 µg/mL) | 26 (≈ 8.28 µg/mL) | – |
